Test results from BigSolDB 2.1.

Cc1cccc(Nc2ccccc2C(=O)O)c1C
solubility (mole fraction)
Conditions	in DMAc	in DMF	in acetone	in cyclohexane	in ethanol	in ethyl acetate	in isopropanol	in n-heptane	in n-hexane	in water
298 K	0.122	0.0171	0.0054	0.0009	0.0019	0.0039	0.002	0.0011	0.0013	–
303 K	0.138	0.0208	0.0055	0.0009	0.002	0.0045	0.0024	0.0013	0.0014	–
308 K	0.153	0.0275	0.0065	0.0011	0.0024	0.0055	0.0026	0.0015	0.0016	–
313 K	0.165	0.0327	0.007	0.0012	0.0032	0.0071	0.0033	0.0017	0.0018	1e-05
318 K	0.175	0.0391	0.0084	0.0014	0.0037	0.0079	0.004	0.0018	0.002	3e-05
323 K	0.19	0.0551	0.0098	0.0016	0.0042	0.0096	0.0053	0.0022	0.0024	5e-05
